Patent US7416741B2, “Copper lowering treatment of inflammatory and fibrotic diseases” (The Regents of the University of Michigan, priority 2002, dated 2008)

Experiments:
LEC rat model = details: LEC rats, late stages of liver disease; cited from earlier work
TGFβ = assay: Lung TGFβ levels (ELISA or PAI-1 promoter-luciferase cell line), bleomycin model; format: in vivo, mouse
Procedure: Lung TGFβ levels were measured using either ELISA with a kit from R&D Systems (Minneapolis, Minn.), or using a cell line stably transfected with a plasminogen activator inhibitor-1 (PAI-1) promoter-luciferase construct (M Abe et al., Analytical Biochemistry, 216:276-284 [1994]). Briefly for the latter assay, mink lung epithelial cells transfected with the PAI-1 promoter construct were incubated with the indicated activated (by pre-acidification) test samples diluted (1:2 dilution) in fresh media. After a 24 hr incubation, the cells were lysed with reporter lysis buffer (Promega, Madison, Wis.). Luciferase activity was measured by the luciferase assay system (Promega) and read using a Reporter microplate luminometer (Turner Designs, Sunnyvale, Calif.). Human TGFβ1 (R&D Systems) was used as a standard.

sheep = details: cited from earlier work
TNFα = assay: Plasma TNFα in Con A treated mice; format: in vivo, mouse; details: Ex 5 Exp 3; TM from 5 days before first of two Con A injections; 2 hrs after last; p=0.03
From the text: In a third experiment, two Con A injections one week apart were given to 10 mice. Five of the mice had begun TM treatment 5 days prior to the first injection. All the mice were sacrificed 2 hrs after the last Con A injection.

## [SH-].[SH-].[S]=[Mo]=[S] [TM, tetrathiomolybdate]
LEC rat model
  efficacy against copper toxicity / liver disease: very effective
TGFβ; Ex 2 Exp 1, bleomycin/TM, day 7, p=0.06
  lung TGFβ protein level (ELISA), bleomycin-induced increase: inhibited this increase
TGFβ; Ex 2 Exp 2, TM from day 5, day 21, not statistically significant
  lung TGFβ protein levels (PAI-1 promoter-luciferase), bleomycin-induced increase: completely inhibited this increase
TGFβ; Ex 2 Exp 3, TM started 5 days prior to bleomycin (Bleo/TM-5), p=0.04
  lung TGFβ protein levels (ELISA): significantly inhibited
sheep; copper loaded sheep, 50 or 100 mg 2×weekly for up to 11 weeks
  tolerability of intravenous TM: tolerated up to 22 injections of TM without clinical problems
sheep; prophylactic use in commercial sheep flocks, over 400 animals
  adverse side effects: no adverse side effects
TNFα
  Plasma levels of TNFα: significantly lower
